Reference: US9029404B2, “Apoptosis-inducing agents for the treatment of cancer and immune and autoimmune diseases” (AbbVie Inc., priority 2008, dated 2015)

What follows are compounds tested against GST-Bcl-2 (Homo sapiens, UniProt P10415) (assay: Time Resolved-Fluorescence Resonance Energy Transfer (TR-FRET) Bcl-2 binding assay). Details: competition with F-Bak peptide probe (100 nM); GST-Bcl-2 1 nM; Tb-anti-GST 1 nM; 3 hours at room temperature; Wang's equation.
Experimental: Determination of the utility of compounds having Formula (I) as binders to and inhibitors of anti-apoptotic Bcl-2 proteins was performed using the Time Resolved-Fluorescence Resonance Energy Transfer (TR-FRET) Assay. Tb-anti-GST antibody was purchased from Invitrogen (Catalog No. PV4216).
(§1) Representative compounds were serially diluted in dimethyl sulfoxide (DMSO) starting at 50 μM (2× starting concentration; 10% DMSO) and 10 μL were transferred into a 384-well plate. The samples are then mixed on a shaker for 1 minute and incubated for an additional 3 hours at room temperature. For each assay, the probe/antibody and protein/probe/antibody were included on each assay plate as negative and positive controls, respectively. Fluorescence was measured on the Envision (Perkin Elmer) using a 340/35 nm excitation filter and 520/525 (F-Bak peptide) and 495/510 nm (Tb-labeled anti-Histidine antibody) emission filters.
as §1, with “The” for “Representative compounds were serially diluted in dimethyl sulfoxide (DMSO) starting at 50 μM (2× starting concentration; 10% DMSO) and 10 μL were transferred into a 384-well plate. The”, “were” for “are”
The inhibition constant (Ki) is the dissociation constant of an enzyme-inhibitor complex or a protein/small molecule complex, wherein the small molecule is inhibiting binding of one protein to another protein. So a large Ki value indicates a low binding affinity and a small Ki value indicates a high binding affinity.

GST-Bcl-2, sequence (P10415 whole entry): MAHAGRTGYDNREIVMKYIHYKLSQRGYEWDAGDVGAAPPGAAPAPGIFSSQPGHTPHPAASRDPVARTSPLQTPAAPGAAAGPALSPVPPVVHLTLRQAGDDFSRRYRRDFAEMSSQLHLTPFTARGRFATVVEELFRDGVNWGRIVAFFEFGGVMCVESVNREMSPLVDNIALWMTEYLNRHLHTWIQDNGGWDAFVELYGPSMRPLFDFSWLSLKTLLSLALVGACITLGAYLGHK

Going from `CC1(C)CC(c2ccc(Cl)cc2)=C(CN2CCN(c3ccc(C(=O)NS(=O)(=O)c4ccc(OCC5(F)CCOCC5)c(Cl)c4)c(Oc4cc5cc[nH]c5cc4F)c3)CC2)CO1` [Example 413, N-({3-chloro-4-[(4-fluorotetrahydro-2H-pyran-4-yl)methoxy]phenyl}sulfonyl)-4-(4-{[4-(4-chlorophenyl)-6,6-dimethyl-5,6-dihydro-2H-pyran-3-yl]methyl}piperazin-1-yl)-2-[(6-fluoro-1H-indol-5-yl)oxy]benzamide] to `CC1(C)CCC(CN2CCN(c3ccc(C(=O)NS(=O)(=O)c4ccc(NCC5(F)CCOCC5)c([N+](=O)[O-])c4)c(Oc4cc(F)cc5[nH]ncc45)c3)CC2)=C(c2ccc(Cl)cc2)C1` [Example 418, 4-(4-{[2-(4-chlorophenyl)-4,4-dimethylcyclohex-1-en-1-yl]methyl}piperazin-1-yl)-2-[(6-fluoro-1H-indazol-4-yl)oxy]-N-[(4-{[(4-fluorotetrahydro-2H-pyran-4-yl)methyl]amino}-3-nitrophenyl)sulfonyl]benzamide], the Ki falls from 0.739 nM to < 0.01 nM.

`CC1(C)CCC(CN2CCN(c3ccc(C(=O)NS(=O)(=O)c4ccc(NCC5CCC6(CC5)COC6)c([N+](=O)[O-])c4)c(Oc4cnc(N)c(Cl)c4)c3)CC2)=C(c2ccc(Cl)cc2)C1` [Example 450, 2-[(6-amino-5-chloropyridin-3-yl)oxy]-4-(4-{[2-(4-chlorophenyl)-4,4-dimethylcyclohex-1-en-1-yl]methyl}piperazin-1-yl)-N-({3-nitro-4-[(2-oxaspiro[3.5]non-7-ylmethyl)amino]phenyl}sulfonyl)benzamide] and `CC1(C)CCC(CN2CCN(c3ccc(C(=O)NS(=O)(=O)c4ccc(OCC5(F)CCOCC5)c([N+](=O)[O-])c4)c(Oc4cc(F)cc5[nH]ncc45)c3)CC2)=C(c2ccc(Cl)cc2)C1` [Example 433, 4-(4-{[2-(4-chlorophenyl)-4,4-dimethylcyclohex-1-en-1-yl]methyl}piperazin-1-yl)-2-[(6-fluoro-1H-indazol-4-yl)oxy]-N-({4-[(4-fluorotetrahydro-2H-pyran-4-yl)methoxy]-3-nitrophenyl}sulfonyl)benzamide] cannot be ordered by Ki: < 0.01 nM for the first, < 0.01 nM for the second.

First: CO[C@H]1CC[C@H](CNc2ccc(S(=O)(=O)NC(=O)c3ccc(N4CCN(CC5=C(c6ccc(Cl)cc6)CC(C)(C)CC5)CC4)cc3Oc3cccc4[nH]nc(N)c34)cc2[N+](=O)[O-])CC1 [Example 435, 2-[(3-amino-1H-indazol-4-yl)oxy]-4-(4-{[2-(4-chlorophenyl)-4,4-dimethylcyclohex-1-en-1-yl]methyl}piperazin-1-yl)-N-[(4-{[(trans-4-methoxycyclohexyl)methyl]amino}-3-nitrophenyl)sulfonyl]benzamide]
Second: 2-[(6-amino-5-chloropyridin-3-yl)oxy]-4-(4-{[2-(4-chlorophenyl)-4,4-dimethylcyclohex-1-en-1-yl]methyl}piperazin-1-yl)-N-{[4-({[4-({[4-(methoxymethyl)cyclohexyl]methyl}amino)-3-nitrophenyl]sulfonyl}amino)-3-nitrophenyl]sulfonyl}benzamide [Example 454]
The Ki of the first is 2.4-fold lower: 0.01 nM for the first, 0.024 nM for the second. The first binds more tightly here.

Going from `CC1(C)CCC(CN2CCN(c3ccc(C(=O)NS(=O)(=O)c4ccc(OC[C@H]5CC[C@](C)(O)CC5)c([N+](=O)[O-])c4)c(Oc4cnc(N)c(Cl)c4)c3)CC2)=C(c2ccc(Cl)cc2)C1` [Example 441, 2-[(6-amino-5-chloropyridin-3-yl)oxy]-4-(4-{[2-(4-chlorophenyl)-4,4-dimethylcyclohex-1-en-1-yl]methyl}piperazin-1-yl)-N-({4-[(trans-4-hydroxy-4-methylcyclohexyl)methoxy]-3-nitrophenyl}sulfonyl)benzamide] to `CC1(C)CCC(CN2CCN(c3ccc(C(=O)NS(=O)(=O)c4cnc(OCC5CCC(C)(O)CC5)c(Cl)c4)c(Oc4cc(F)cc5[nH]ncc45)c3)CC2)=C(c2ccc(Cl)cc2)C1` (stereo not drawn) [Example 424, N-({5-chloro-6-[(trans-4-hydroxy-4-methylcyclohexyl)methoxy]pyridin-3-yl}sulfonyl)-4-(4-{[2-(4-chlorophenyl)-4,4-dimethylcyclohex-1-en-1-yl]methyl}piperazin-1-yl)-2-[(6-fluoro-1H-indazol-4-yl)oxy]benzamide], the Ki falls from 0.054 nM to < 0.01 nM.

`CC1(C)CCC(CN2CCN(c3ccc(C(=O)NS(=O)(=O)c4ccc(NCC5CN(C6COC6)CCO5)c([N+](=O)[O-])c4)c(Oc4cc5cc[nH]c5cc4F)c3)CC2)=C(c2ccc(Cl)cc2)C1` (centres unmarked) [Example 422, 4-(4-{[2-(4-chlorophenyl)-4,4-dimethylcyclohex-1-en-1-yl]methyl}piperazin-1-yl)-2-[(6-fluoro-1H-indol-5-yl)oxy]-N-{[3-nitro-4-({[4-(oxetan-3-yl)morpholin-2-yl]methyl}amino)phenyl]sulfonyl}benzamide] and `CC1(C)CCC(CN2CCN(c3ccc(C(=O)NS(=O)(=O)c4ccc(NCC5CCOCC5)c([N+](=O)[O-])c4)c(Oc4cccc5[nH]nc(N)c45)c3)CC2)=C(c2ccc(Cl)cc2)C1` [Example 431, 2-[(3-amino-1H-indazol-4-yl)oxy]-4-(4-{[2-(4-chlorophenyl)-4,4-dimethylcyclohex-1-en-1-yl]methyl}piperazin-1-yl)-N-({3-nitro-4-[(tetrahydro-2H-pyran-4-ylmethyl)amino]phenyl}sulfonyl)benzamide] cannot be ordered by Ki: < 0.01 nM for the first, < 0.01 nM for the second.

Compared with `CC1(C)CCC(CN2CCN(c3ccc(C(=O)NS(=O)(=O)c4cnc(NCC5CCOCC5)c([N+](=O)[O-])c4)c(Oc4cnc(N)c(Cl)c4)c3)CC2)=C(c2ccc(Cl)cc2)C1` [Example 449, 2-[(6-amino-5-chloropyridin-3-yl)oxy]-4-(4-{[2-(4-chlorophenyl)-4,4-dimethylcyclohex-1-en-1-yl]methyl}piperazin-1-yl)-N-({5-nitro-6-[(tetrahydro-2H-pyran-4-ylmethyl)amino]pyridin-3-yl}sulfonyl)benzamide], `Cn1c(=O)[nH]c2cccc(Oc3cc(N4CCN(CC5=C(c6ccc(Cl)cc6)CC(C)(C)CC5)CC4)ccc3C(=O)NS(=O)(=O)c3cnc(OCC4CCOCC4)c(Cl)c3)c21` [Example 425, 4-(4-{[2-(4-chlorophenyl)-4,4-dimethylcyclohex-1-en-1-yl]methyl}piperazin-1-yl)-N-{[5-chloro-6-(tetrahydro-2H-pyran-4-ylmethoxy)pyridin-3-yl]sulfonyl}-2-[(3-methyl-2-oxo-2,3-dihydro-1H-benzimidazol-4-yl)oxy]benzamide] is higher in Ki: < 0.01 nM for the first, 0.013 nM for the second.

First: O=C(NS(=O)(=O)c1cnc(OCC2(F)CCOCC2)c(Cl)c1)c1ccc(N2CCN(CC3=C(c4ccc(Cl)cc4)CCN(C(CF)CF)C3)CC2)cc1Oc1cc2cc[nH]c2cc1F [Example 417, N-({5-chloro-6-[(4-fluorotetrahydro-2H-pyran-4-yl)methoxy]pyridin-3-yl}sulfonyl)-4-(4-{[4-(4-chlorophenyl)-1-(1,3-difluoropropan-2-yl)-1,2,5,6-tetrahydropyridin-3-yl]methyl}piperazin-1-yl)-2-[(6-fluoro-1H-indol-5-yl)oxy]benzamide]
Second: CC1(C)CCC(CN2CCN(c3ccc(C(=O)NS(=O)(=O)c4ccc(OCC5(F)CCOCC5)c(Cl)c4)c(Oc4cc5cc[nH]c5cc4F)c3)CC2)=C(c2ccc(Cl)cc2)C1 [Example 412, N-({3-chloro-4-[(4-fluorotetrahydro-2H-pyran-4-yl)methoxy]phenyl}sulfonyl)-4-(4-{[2-(4-chlorophenyl)-4,4-dimethylcyclohex-1-en-1-yl]methyl}piperazin-1-yl)-2-[(6-fluoro-1H-indol-5-yl)oxy]benzamide]
The Ki of the first is 6.1-fold higher: 6.88 nM for the first, 1.12 nM for the second. The second binds more tightly here.

`CC1(C)CCC(CN2CCN(c3ccc(C(=O)NS(=O)(=O)c4cnc(OCC5(F)CCOCC5)c(Cl)c4)c(Oc4ccc(F)c5[nH]ncc45)c3)CC2)=C(c2ccc(Cl)cc2)C1` [Example 420, N-({5-chloro-6-[(4-fluorotetrahydro-2H-pyran-4-yl)methoxy]pyridin-3-yl}sulfonyl)-4-(4-{[2-(4-chlorophenyl)-4,4-dimethylcyclohex-1-en-1-yl]methyl}piperazin-1-yl)-2-[(7-fluoro-1H-indazol-4-yl)oxy]benzamide] and `CC1(C)CCC(CN2CCN(c3ccc(C(=O)NS(=O)(=O)c4cnc(OCC5CCC(C)(O)CC5)c(Cl)c4)c(Oc4cccc5[nH]nc(N)c45)c3)CC2)=C(c2ccc(Cl)cc2)C1` (stereo not drawn) [Example 445, 2-[(3-amino-1H-indazol-4-yl)oxy]-N-({5-chloro-6-[(trans-4-hydroxy-4-methylcyclohexyl)methoxy]pyridin-3-yl}sulfonyl)-4-(4-{[2-(4-chlorophenyl)-4,4-dimethylcyclohex-1-en-1-yl]methyl}piperazin-1-yl)benzamide] cannot be ordered by Ki: < 0.01 nM for the first, < 0.01 nM for the second.

In the case of `CC1(C)CC(c2ccc(Cl)cc2)=C(CN2CCN(c3ccc(C(=O)NS(=O)(=O)c4ccc(OCC5(F)CCOCC5)c([N+](=O)[O-])c4)c(Oc4cc5cc[nH]c5cc4F)c3)CC2)CO1` [Example 297, 4-(4-{[4-(4-chlorophenyl)-6,6-dimethyl-5,6-dihydro-2H-pyran-3-yl]methyl}piperazin-1-yl)-2-[(6-fluoro-1H-indol-5-yl)oxy]-N-({4-[(4-fluorotetrahydro-2H-pyran-4-yl)methoxy]-3-nitrophenyl}sulfonyl)benzamide], the Ki is reported as < 0.01 nM.
